Data from ChEMBL document CHEMBL4334438, “Discovery of novel glycogen synthase kinase-3α inhibitors: Structure-based virtual screening, preliminary SAR and biological evaluation for treatment of acute myeloid leukemia” (Eur J Med Chem, 2019).

Legend:
GSK-3beta (H350L mutant) = GSK-3beta (H350L mutant) (Homo sapiens, UniProt P49841, H350L); experiment: Inhibition of human GSK-3beta H350L mutant (2 to end residues) at 10 uM using phospho GS2 peptide as substrate after 40 mins by [gamma-33ATP] radiometric assay relative to control; settings: human GSK-3beta H350L mutant enzyme (residues 2 to end), probe phospho GS2 peptide
[1] = system: Tyrosine-protein kinase ABL1 (Homo sapiens), P00519 [Y253F]; experiment: Inhibition of human ABL1 Y253F mutant (27 to end residues) assessed as residual activity at 1 uM using EAIYAAPFAKKK as substrate incubated for 40 mins in presence of [gamma-33ATP] by scintillation counting based radiometry assay relative to control
[2] = target: CDK4/Cyclin D3 (Homo sapiens) (UniProt P11802+P30281); experiment: Inhibition of recombinant full length human CDK4/CyclinD3 assessed as residual activity at 1 uM using Rb fragment as substrate incubated for 40 mins in presence of [gamma-33ATP] by scintillation counting based radiometry assay relative to control; format: protein-complex assay
[3] = system: Mast/stem cell growth factor receptor Kit (Homo sapiens), P10721 [D816H]; experiment: Inhibition of recombinant human C-Kit D816H mutant (544 to end residues) assessed as residual activity at 1 uM poly(Glu, Tyr) 4:1 as substrate incubated 40 mins in presence of [gamma-33ATP] by scintillation counting based radiometry assay relative to control
Mast/stem cell growth factor receptor Kit (Homo sapiens), P10721 [D816H], sequence (P10721 whole entry D816H): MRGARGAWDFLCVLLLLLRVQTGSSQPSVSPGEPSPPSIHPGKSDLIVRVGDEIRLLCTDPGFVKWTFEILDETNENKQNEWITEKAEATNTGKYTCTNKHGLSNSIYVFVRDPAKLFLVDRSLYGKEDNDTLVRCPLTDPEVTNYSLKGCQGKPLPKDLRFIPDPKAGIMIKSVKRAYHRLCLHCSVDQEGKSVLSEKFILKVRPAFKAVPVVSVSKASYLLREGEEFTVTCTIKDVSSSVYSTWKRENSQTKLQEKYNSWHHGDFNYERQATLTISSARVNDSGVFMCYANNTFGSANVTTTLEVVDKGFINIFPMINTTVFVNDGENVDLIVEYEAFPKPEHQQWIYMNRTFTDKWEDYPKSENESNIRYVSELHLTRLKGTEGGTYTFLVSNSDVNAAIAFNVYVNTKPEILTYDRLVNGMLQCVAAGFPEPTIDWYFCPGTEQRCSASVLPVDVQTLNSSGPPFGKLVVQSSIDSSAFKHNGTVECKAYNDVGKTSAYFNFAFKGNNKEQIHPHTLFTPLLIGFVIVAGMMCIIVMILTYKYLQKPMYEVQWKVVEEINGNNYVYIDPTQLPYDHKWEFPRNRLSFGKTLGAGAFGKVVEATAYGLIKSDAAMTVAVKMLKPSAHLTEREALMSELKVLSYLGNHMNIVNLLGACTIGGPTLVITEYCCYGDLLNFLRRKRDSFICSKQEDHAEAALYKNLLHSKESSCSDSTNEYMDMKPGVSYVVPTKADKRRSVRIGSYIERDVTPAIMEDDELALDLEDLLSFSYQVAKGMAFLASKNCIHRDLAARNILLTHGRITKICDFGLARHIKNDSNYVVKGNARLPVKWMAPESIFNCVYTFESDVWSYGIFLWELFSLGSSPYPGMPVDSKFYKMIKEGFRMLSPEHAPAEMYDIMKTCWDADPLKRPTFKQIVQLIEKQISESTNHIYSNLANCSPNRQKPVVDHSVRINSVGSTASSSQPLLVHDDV

[4] = target: Death-associated protein kinase 2 (Homo sapiens) (UniProt Q9UIK4); experiment: Inhibition of recombinant full length human DAPK2 assessed as residual activity at 1 uM Calmodulin as substrate incubated 40 mins in presence of [gamma-33ATP] by scintillation counting based radiometry assay relative to control
[5] = target: Dual specificity tyrosine-phosphorylation-regulated kinase 1A (Homo sapiens) (UniProt Q13627); experiment: Inhibition of recombinant human DYRK1A assessed as residual activity at 1 uM using RRRFRPASPLRGPPK as substrate at 40 mins in presence of [gamma-33ATP] by scintillation counting based radiometry assay relative to control
[6] = target: Epidermal growth factor receptor (Homo sapiens) (UniProt P00533); experiment: Inhibition of recombinant human EGFR (696 to end residues) assessed as residual activity at 1 uM using poly(Glu, Tyr) 4:1 as substrate at 40 mins in presence of [gamma-33ATP] by scintillation counting based radiometry assay relative to control
[7] = target: Receptor-type tyrosine-protein kinase FLT3 (Homo sapiens) (UniProt P36888); experiment: Inhibition of recombinant human FLT3 (564 to end residues) assessed as residual activity at 1 uM using EAIYAAPFAKKK as substrate at 40 mins in presence of [gamma-33ATP] by scintillation counting based radiometry assay relative to control
Homo sapiens = species: Homo sapiens; experiment: Inhibition of recombinant human FLT4 V1128L/ H1146R double mutant (800 to end residues) assessed as residual activity at 1 uM using GGEEEEYFELVKKKK as substrate at 40 mins in presence of [gamma-33ATP] by scintillation counting based radiometry assay relative to control
[8] = target: Insulin-like growth factor 1 receptor (Homo sapiens) (UniProt P08069); experiment: Inhibition of human activated IGF1R (959 to end residues) assessed as residual activity at 1 uM using KKKSPGEYVNIEFG as substrate after 40 mins by [gamma-33ATP] radiometric assay relative to control
Insulin-like growth factor 1 receptor (Homo sapiens), sequence (P08069 31-736 limits assumed): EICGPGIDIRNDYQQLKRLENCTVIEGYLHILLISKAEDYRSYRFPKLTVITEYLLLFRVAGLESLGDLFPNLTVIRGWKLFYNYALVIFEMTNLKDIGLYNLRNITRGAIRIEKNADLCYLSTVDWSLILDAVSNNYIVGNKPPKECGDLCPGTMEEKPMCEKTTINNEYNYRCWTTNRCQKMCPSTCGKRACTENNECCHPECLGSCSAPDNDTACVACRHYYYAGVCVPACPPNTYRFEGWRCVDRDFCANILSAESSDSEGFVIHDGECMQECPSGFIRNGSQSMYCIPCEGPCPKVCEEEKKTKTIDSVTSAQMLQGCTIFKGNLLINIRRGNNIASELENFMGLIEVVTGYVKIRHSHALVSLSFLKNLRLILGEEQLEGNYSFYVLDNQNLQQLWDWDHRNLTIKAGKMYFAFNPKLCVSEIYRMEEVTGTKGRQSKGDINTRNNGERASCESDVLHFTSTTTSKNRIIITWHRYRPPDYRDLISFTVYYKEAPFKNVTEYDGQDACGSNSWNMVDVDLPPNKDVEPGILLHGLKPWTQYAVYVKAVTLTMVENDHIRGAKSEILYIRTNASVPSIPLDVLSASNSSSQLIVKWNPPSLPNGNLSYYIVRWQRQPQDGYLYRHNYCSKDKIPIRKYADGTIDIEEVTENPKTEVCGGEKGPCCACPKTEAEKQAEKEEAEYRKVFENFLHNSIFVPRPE
Insulin-like growth factor 1 receptor (Homo sapiens), sequence (P08069 741-1367 limits assumed): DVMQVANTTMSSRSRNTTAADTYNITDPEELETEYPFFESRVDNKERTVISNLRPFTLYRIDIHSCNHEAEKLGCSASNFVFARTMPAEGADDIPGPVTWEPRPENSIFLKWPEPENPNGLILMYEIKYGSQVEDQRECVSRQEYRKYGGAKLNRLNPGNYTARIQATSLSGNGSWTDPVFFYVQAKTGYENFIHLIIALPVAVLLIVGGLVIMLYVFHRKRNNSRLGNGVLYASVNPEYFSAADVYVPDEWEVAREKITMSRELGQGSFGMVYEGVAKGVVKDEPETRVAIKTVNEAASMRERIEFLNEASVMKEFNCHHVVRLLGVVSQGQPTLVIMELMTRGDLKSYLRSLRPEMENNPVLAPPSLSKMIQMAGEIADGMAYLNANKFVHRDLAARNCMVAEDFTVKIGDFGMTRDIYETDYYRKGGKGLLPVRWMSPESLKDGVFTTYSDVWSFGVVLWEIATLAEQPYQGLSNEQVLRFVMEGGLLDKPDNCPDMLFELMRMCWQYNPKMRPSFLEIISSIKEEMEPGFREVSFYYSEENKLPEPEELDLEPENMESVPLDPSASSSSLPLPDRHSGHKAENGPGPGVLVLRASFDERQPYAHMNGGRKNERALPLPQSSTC

[9] = target: Mitogen-activated protein kinase 9 (Homo sapiens) (UniProt P45984); experiment: Inhibition of human JNK2alpha2 assessed as residual activity at 1 uM using ATF2 as substrate after 40 mins by [gamma-33ATP] radiometric assay relative to control
[10] = target: Maternal embryonic leucine zipper kinase (Homo sapiens) (UniProt Q14680); experiment: Inhibition of recombinant human MELK (1 to 340 residues) assessed as residual activity at 1 uM using KKLNRTLSFAEPG as substrate incubated for 40 mins in presence of [gamma-33ATP by scintillation counting based radiometry assay relative to control
[11] = target: Serine/threonine-protein kinase 4 (Homo sapiens) (UniProt Q13043); experiment: Inhibition of recombinant full-length human MST1 assessed as residual activity at 1 uM using KKSRGDYMTMQIG as substrate measured after 40 mins in presence of [gamma33P]ATP by scintillation counting method relative to control
[12] = target: Serine/threonine-protein kinase PAK 4 (Homo sapiens) (UniProt O96013); experiment: Inhibition of recombinant human PAK4 (295 to end residues) assessed as residual activity at 1 uM using myelin basic protein as substrate measured after 40 mins in presence of [gamma33P]ATP by scintillation counting method relative to control
Serine/threonine-protein kinase PAK 4 (Homo sapiens), sequence (O96013 whole entry, looked up): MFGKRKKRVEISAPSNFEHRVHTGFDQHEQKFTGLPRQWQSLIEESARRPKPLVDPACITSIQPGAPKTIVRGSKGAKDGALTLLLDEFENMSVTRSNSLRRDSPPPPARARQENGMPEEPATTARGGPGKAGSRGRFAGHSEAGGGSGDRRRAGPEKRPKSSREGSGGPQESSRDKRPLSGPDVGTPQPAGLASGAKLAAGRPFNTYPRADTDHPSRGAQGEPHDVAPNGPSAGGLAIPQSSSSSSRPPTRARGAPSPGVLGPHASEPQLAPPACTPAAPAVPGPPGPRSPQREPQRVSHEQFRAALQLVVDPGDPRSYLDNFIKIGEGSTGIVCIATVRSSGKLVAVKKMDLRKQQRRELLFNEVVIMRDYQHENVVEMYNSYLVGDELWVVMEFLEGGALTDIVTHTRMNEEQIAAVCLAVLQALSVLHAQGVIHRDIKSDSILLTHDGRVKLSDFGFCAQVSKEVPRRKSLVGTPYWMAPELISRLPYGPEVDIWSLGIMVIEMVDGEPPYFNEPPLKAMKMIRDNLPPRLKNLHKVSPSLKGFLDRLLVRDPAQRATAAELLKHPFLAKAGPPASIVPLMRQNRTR

[13] = target: 3-phosphoinositide-dependent protein kinase 1 (Homo sapiens) (UniProt O15530); experiment: Inhibition of recombinant human PDK1 (52 to end residues) assessed as residual activity at 1 uM using PDKtide as substrate measured after 40 mins in presence of [gamma33P]ATP by scintillation counting method relative to control
[14] = system: Serine/threonine-protein kinase D1 (Homo sapiens), Q15139 [UNDEFINED MUTATION]; experiment: Inhibition of recombinant full-length human PKCmu R135A mutant assessed as residual activity at 1 uM using KKLNRTLSVA as substrate incubated for 40 mins in presence of [gamma33P]ATP by scintillation counting based radiometry assay relative to control
Serine/threonine-protein kinase D1 (Homo sapiens), Q15139 [UNDEFINED MUTATION], sequence (Q15139 whole entry, looked up, stated change not applied): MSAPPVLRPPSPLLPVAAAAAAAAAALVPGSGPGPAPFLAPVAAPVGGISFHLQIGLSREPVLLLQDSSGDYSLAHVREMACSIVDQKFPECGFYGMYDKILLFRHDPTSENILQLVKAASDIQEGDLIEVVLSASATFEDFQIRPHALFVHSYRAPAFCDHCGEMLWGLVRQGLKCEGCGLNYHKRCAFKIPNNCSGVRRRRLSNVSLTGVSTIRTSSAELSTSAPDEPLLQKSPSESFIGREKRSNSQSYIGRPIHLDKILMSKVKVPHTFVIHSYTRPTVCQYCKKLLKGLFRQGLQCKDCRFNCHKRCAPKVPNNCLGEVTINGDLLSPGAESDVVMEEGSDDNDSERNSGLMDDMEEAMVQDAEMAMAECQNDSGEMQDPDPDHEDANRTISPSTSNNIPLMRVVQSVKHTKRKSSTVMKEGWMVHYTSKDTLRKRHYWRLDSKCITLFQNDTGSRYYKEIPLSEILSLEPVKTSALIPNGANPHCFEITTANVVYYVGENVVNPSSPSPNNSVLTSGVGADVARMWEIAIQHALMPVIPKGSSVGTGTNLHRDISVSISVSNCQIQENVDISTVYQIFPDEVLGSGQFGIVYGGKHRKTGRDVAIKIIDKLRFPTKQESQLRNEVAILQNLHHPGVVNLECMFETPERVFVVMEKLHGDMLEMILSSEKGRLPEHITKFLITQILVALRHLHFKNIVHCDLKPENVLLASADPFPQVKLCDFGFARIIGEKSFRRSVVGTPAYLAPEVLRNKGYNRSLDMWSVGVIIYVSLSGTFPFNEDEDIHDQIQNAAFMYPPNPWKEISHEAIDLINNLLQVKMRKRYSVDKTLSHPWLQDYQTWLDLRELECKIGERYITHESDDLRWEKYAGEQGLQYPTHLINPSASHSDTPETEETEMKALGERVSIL

[15] = target: Mitogen-activated protein kinase 14 (Homo sapiens) (UniProt Q16539); experiment: Inhibition of recombinant human full length SAPK2a assessed as residual activity at 1 uM using myelin basic protein as substrate measured after 40 mins in presence of [gamma33P]ATP by scintillation counting method relative to control
[16] = target: Mitogen-activated protein kinase 13 (Homo sapiens) (UniProt O15264); experiment: Inhibition of recombinant human full length SAPK4 assessed as residual activity at 1 uM using myelin basic protein as substrate measured after 40 mins in presence of [gamma33P]ATP by scintillation counting method relative to control
Mitogen-activated protein kinase 13 (Homo sapiens), sequence (O15264 whole entry): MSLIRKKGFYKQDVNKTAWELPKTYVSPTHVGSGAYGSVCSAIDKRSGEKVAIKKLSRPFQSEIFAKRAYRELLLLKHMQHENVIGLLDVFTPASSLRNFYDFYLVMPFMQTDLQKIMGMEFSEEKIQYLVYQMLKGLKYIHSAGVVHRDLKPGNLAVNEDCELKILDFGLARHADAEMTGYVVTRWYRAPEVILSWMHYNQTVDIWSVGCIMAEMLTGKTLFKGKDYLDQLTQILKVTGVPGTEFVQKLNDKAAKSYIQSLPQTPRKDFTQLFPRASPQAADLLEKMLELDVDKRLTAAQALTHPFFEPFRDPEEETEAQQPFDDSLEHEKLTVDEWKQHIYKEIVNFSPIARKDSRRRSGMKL

[17] = system: Serine/threonine-protein kinase Sgk1 (Homo sapiens), O00141 [S422D]; experiment: Inhibition of recombinant human SGK S422D mutant (60 to end residues) assessed as residual activity at 1 uM using GRPRTSSFAEGKK as substrate measured after 40 mins in presence of [gamma33P]ATP by scintillation counting method relative to control
Serine/threonine-protein kinase Sgk1 (Homo sapiens), O00141 [S422D], sequence (O00141 whole entry S422D): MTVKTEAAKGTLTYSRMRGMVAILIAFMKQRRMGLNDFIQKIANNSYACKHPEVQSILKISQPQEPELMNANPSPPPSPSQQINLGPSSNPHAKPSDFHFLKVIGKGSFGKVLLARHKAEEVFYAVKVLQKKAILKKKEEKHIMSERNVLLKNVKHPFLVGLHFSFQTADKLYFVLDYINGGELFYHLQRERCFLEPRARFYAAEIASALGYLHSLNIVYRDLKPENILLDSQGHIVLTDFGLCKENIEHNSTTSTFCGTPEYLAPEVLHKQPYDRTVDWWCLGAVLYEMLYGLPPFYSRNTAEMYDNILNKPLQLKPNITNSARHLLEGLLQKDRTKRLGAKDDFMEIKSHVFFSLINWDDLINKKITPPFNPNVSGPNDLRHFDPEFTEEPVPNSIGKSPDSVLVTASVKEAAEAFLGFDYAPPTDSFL

[18] = target: Testis-specific serine/threonine-protein kinase 3 (Homo sapiens) (UniProt Q96PN8); experiment: Inhibition of recombinant full-length human TSSK3 at 1 uM assessed as residual activity at 1 uM using AMARAASAAALARRR as substrate measured after 40 mins in presence of [gamma33P]ATP by scintillation counting method relative to control
Testis-specific serine/threonine-protein kinase 3 (Homo sapiens), sequence (Q96PN8 whole entry, the tested form may be a part): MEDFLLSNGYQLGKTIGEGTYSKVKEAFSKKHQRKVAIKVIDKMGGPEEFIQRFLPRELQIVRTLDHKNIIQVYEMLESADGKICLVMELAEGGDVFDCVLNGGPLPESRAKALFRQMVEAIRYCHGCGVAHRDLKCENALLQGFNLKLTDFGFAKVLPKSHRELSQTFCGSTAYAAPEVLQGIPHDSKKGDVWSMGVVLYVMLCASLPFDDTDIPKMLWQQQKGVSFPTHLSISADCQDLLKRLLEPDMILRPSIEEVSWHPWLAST

[19] = target: Tau-tubulin kinase 2 (Homo sapiens) (UniProt Q6IQ55); experiment: Inhibition of human TTBK2 (1 to 331 residues) assessed as residual activity at 1 uM using Casein as substrate measured after 40 mins in presence of [gamma33P]ATP by scintillation counting method relative to control

Row | Structure (SMILES) | inhibition at 40 min, 10 µM (GSK-3beta (H350L mutant)) | Activity [1] | Activity [2] | Activity [3] | Activity [4] | Activity [5] | Activity [6] | Activity [7] | Activity (Homo sapiens) | Activity [8] | Activity [9] | Activity [10] | Activity [11] | Activity [12] | Activity [13] | Activity [14] | Activity [15] | Activity [16] | Activity [17] | Activity [18] | also measured
1 | N=C1NC(=O)/C(=C\c2ccc(-c3cccc([N+](=O)[O-])c3)o2)S1 | 95% | 94% | 87% | 89% | 83% | 25% | 91% | 90% | 116% | 99% | 103% | 89% | 98% | 92% | 96% | 97% | 100% | 97% | 98% | 106% | Activity [19]: 107%
2 | C=CCOC(=O)c1cc(-c2ccc(/C=C3/NC(=S)NC3=O)o2)ccc1Cl | 92% | 88% | 98% | 97% | 86% | 16% | 106% | 108% | 82% | 96% | 109% | 105% | 103% | 101% | 87% | 99% | 101% | 89% | 91% | 99% | Activity [19]: 111%
